Laboratory results reported in article PMC10341658, “In Silico Screening and Anticancer-Apoptotic Evaluation of Newly Synthesized Thienopyrimidine/Sulfonamide Hybrids” (International Journal of Molecular Sciences, 2023).

How the values were obtained:
[1] = test system: MCF-10A (Non-Tumorigenic Cells); experiment: MTT cytotoxicity on non-tumorigenic MCF-10A cells; assay type: cell-based; details: Homo sapiens, 72 h of exposure, mean ± S.D. of three observations
Description: MTT (3-[4,5-dimethylthiazol-2-yl]-2,5 diphenyltetrazolium bromide) assay was used to study the anticancer activity of all derivatives against breast cancer cells MCF-7and MDAMB231 (obtained from ATCC, Manassas, VA, USA). […] Briefly, cells plated onto 96-well plates (5000 cells/well) were allowed to adhere and form a semi-confluent monolayer. […] After the exposure, cytotoxicity was assessed following the MTT Assay Kit protocol (Abcam, Cambridge, UK) as reported earlier.
The selectivity ratio in non-cancerous cells (MCF10A) versus cancer cells (MCF-7 and MDAmb231) was calculated as reported in [26, 27] using the following equation: SI = IC50 of normal cells/IC50 of cancer cells.

MCF-7 = experiment: MTT anti-proliferative assay, MCF-7; assay type: cell-based, human; details: for IC50: 72 h of exposure, MTT, mean ± S.D. of three observations; for selectivity index (SI) MCF-7: IC50 MCF 10A/IC50 MCF-7, 72 h of exposure
Description: (§1) The cytotoxic effect of the synthesized compounds was estimated against human breast cancer cell lines (MCF-7 and MDA-MB231).
(§2) MTT (3-[4,5-dimethylthiazol-2-yl]-2,5 diphenyltetrazolium bromide) assay was used to study the anticancer activity of all derivatives against breast cancer cells MCF-7and MDAMB231 (obtained from ATCC, Manassas, VA, USA). […] Briefly, cells plated onto 96-well plates (5000 cells/well) were allowed to adhere and form a semi-confluent monolayer. After 24 h, the cells were treated with different concentrations of derivatives (0–100 µM) for 72 h. After the exposure, cytotoxicity was assessed following the MTT Assay Kit protocol (Abcam, Cambridge, UK) as reported earlier.

MDA-MB-231 = experiment: MTT anti-proliferative assay, MDA-MB-231; assay type: cell-based, human; details: for IC50: Homo sapiens, MDA-MB-231, 72 h of exposure, MTT, mean ± S.D. of three observations; for selectivity index (SI) MDA-MB231: IC50 MCF 10A/IC50 MDA-MB231, 72 h of exposure
Description: as §1, §2

FGFR-1 = molecular target: T1, FGFR-1 (Homo sapiens, UniProt P11362); experiment: FGFR-1 inhibitory activity (FGFR-1 ELISA Kit, MDA-MB-231 cell lysates); assay type: biochemical
T1 construct: host or cells: MDA-MB-231
T1 sequence (P11362 22-822): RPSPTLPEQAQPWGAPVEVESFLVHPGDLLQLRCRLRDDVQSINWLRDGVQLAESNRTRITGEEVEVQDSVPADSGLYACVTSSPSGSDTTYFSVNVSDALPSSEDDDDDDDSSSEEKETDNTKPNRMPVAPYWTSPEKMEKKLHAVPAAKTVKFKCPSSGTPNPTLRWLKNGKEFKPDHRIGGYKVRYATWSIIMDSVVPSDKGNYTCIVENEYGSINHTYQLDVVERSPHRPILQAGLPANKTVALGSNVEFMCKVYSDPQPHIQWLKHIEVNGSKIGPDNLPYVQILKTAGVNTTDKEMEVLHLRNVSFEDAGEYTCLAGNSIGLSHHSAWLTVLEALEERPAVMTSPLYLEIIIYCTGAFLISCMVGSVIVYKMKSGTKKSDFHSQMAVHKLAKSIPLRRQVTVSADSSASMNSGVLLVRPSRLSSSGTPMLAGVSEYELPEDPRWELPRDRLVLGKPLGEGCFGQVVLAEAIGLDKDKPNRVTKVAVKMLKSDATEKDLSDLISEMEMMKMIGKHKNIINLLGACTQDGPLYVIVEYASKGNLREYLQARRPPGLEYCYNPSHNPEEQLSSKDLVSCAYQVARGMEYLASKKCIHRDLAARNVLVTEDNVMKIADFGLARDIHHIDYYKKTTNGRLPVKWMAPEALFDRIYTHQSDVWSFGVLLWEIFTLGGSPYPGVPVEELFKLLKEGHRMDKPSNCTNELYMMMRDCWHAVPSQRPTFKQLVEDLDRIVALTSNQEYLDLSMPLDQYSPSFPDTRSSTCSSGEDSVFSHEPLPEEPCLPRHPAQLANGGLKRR
Description: To determine basal FGFR-1 activity, a FGFR-1 ELISA Kit was used according to the protocol of the manufacturer (G-Biosciences, Saint Louis, MO, USA). […] After 90 min of incubation at 37 °C, 100 μL Biotinylated Detection Antibody was added and incubated for 60 min. After washing twice each with washing buffer, 100 μL ELISA Detection Reagent was added to each well and incubated for 30 min. After washing, 90 μL of Detection Substrate (TMB) was added to visualize the enzymatic reaction. TMB was catalyzed to produce a blue color that changed into yellow after adding 50 μL of acidic stop solution. The density of yellow is directly proportional to the concentration of FGFR-1 captured on the plate using a Varioskan TM LUX multimode microplate reader (Thermo Scientific, Waltham, MA, USA).

MDA-MB-231 cells = experiment: Annexin V-FITC/PI flow cytometric apoptosis analysis; assay type: cell-based, human; details: MDA-MB-231, Annexin V-FITC/PI, predetermined IC50
Description: Apoptosis and necrosis are two routes that make up the overall division of the cell death pathway carried out by anticancer agents. A double labeling flow cytometry assay using Annexin V-FITC/propidium iodide was performed to identify which mechanism, necrosis, or apoptosis is responsible for cell death.
Apoptosis was detected after 48 h of cell culture using V-FITC apoptosis detection kit (BD Pharmingen TM, Franklin Lakes, NJ, USA). […] After treatment, cells were collected, washed with ice-cold PBS and centrifuged at 200× g for 5 min. The cell pellet was suspended in 200 μL of annexin V-FITC/PI solution for 15 min in the dark. The stained and Annexine V propidium iodide negative cells were evaluated via CytoFLEX flow cytometry (Beckman Coulter, Brea, CA, USA). Ten thousand cells (gated events) were captured for each sample. The mean fluorescence intensity was analyzed with Cytoexpert (Beckman Coulter).

Caspase-3 = Caspase-3 colorimetric activity assay (Ac-DEVD-pNA) in MDA-MB-231 cells; assay type: cell-based, human; details: predetermined IC50 of compound, 24 h
Description: To further explore the cytotoxicity of the prepared hybrids, their influence on Caspase-3 activity was examined. MDA-MB-231 cells were incubated with the predetermined IC50s of tested compounds for a duration of 24 h.
Caspase-3 activity was assessed with a colorimetric assay based on the hydrolysis of acetyl–Asp–Glu–Val–Asp p-nitroanilide (Ac-DEVD-pNA) by Caspase-3 and releasing p-nitroaniline (pNA). MDA-MB-231 cell lysates (100 ng/mL) were diluted and subjected to analysis via Caspase-3 Colorimetric Assay Kit (Sigma-Aldrich, Saint Louis, MO, USA) based on the protocol of the manufacturer. The reaction for color development was held at 37 °C for 2 h, and the value of OD405 was determined using a Varioskan TM LUX multimode microplate reader (Thermo Scientific, Waltham, MA, USA). Each caspase-3 activity was expressed as a value of OD405.

## CCOC(=O)c1sc2ncnc(Nc3ccc(S(=O)(=O)Nc4ncccn4)cc3)c2c1C [Compound 4bii, Ethyl-5-methyl-4-((4-(N-(pyrimidin-2-yl)sulfamoyl)phenyl)amino)thieno[2,3-d]pyrimidine-6-carboxylate]
[1]
  IC50: 230 ± 24.1 µM
MCF-7; Homo sapiens, MCF7, 72 h
  IC50: 14 ± 8.2 µM
MCF-7
  selectivity index (SI) MCF-7: 16.45
MDA-MB-231
  IC50: 15.57 ± 0.1 µM
  selectivity index (SI) MDA-MB231: 14.77
FGFR-1
  IC50: 289 ± 12 µM

## CCOC(=O)c1sc2ncnc(Nc3ccc(S(=O)(=O)NC(=N)N)cc3)c2c1C [Compound 4bi, Ethyl-4-((4-(N-carbamimidoylsulfamoyl)phenyl)amino)-5-methylthieno[2,3-d]pyrimidine-6-carboxylate]
[1]
  IC50: 277 ± 7.9 µM
MCF-7
  IC50: 6.17 ± 1.3 µM
  selectivity index (SI) MCF-7: 44.86
MCF-7; Homo sapiens, MCF7, 72 h
  IC50: < 10 µM
MDA-MB-231
  IC50: 8.68 ± 4.3 µM
  selectivity index (SI) MDA-MB231: 31.90
FGFR-1
  IC50: 326 ± 7.4 µM

## CCOC(=O)c1sc2ncnc(Nc3ccc(S(=O)(=O)Nc4cc(C)on4)cc3)c2c1C [Compound 4biii, Ethyl-5-methyl-4-((4-(N-(5-methylisoxazol-3-yl)sulfamoyl)phenyl)amino) thieno[2,3-d]pyrimidine-6-carboxylate]
[1]
  IC50: 244.5 ± 1.9 µM
MCF-7
  IC50: 9.54 ± 3.1 µM
  selectivity index (SI) MCF-7: 25.62
MCF-7; Homo sapiens, MCF7, 72 h
  IC50: < 10 µM
MDA-MB-231
  IC50: 17.6 ± 2.3 µM
  selectivity index (SI) MDA-MB231: 13.86
FGFR-1
  IC50: 168 ± 8.3 µM

## CCOC(=O)c1sc2ncnc(Cl)c2c1C [Compound 3b]
[1]
  IC50: 265 ± 4.2 µM
MDA-MB-231 cells
  increase of population of late apoptotic cells: 4.8 fold
  increase of population of necrotic cells: 5.5 fold
MCF-7
  IC50: 9.74 ± 0.13 µM
  selectivity index (SI) MCF-7: 27.20
MCF-7; Homo sapiens, MCF7, 72 h
  IC50: < 10 µM
MDA-MB-231
  IC50: 4.45 ± 0.31 µM
  selectivity index (SI) MDA-MB231: 59.45
FGFR-1
  IC50: 179 ± 5.6 µM
Caspase-3
  Caspase-3 activity fold change vs control cells: 2.3 fold

## Cc1cc(NS(=O)(=O)c2ccc(Nc3ncnc4sc5c(c34)CCCC5)cc2)no1 [Compound 4aiii, N-(5-methylisoxazol-3-yl)-4-((5,6,7,8-tetrahydrobenzo[4,5]thieno[2,3-d]pyrimidin-4-yl)amino)benzenesulfonamide]
[1]
  IC50: 88.5 ± 10.1 µM
MCF-7; Homo sapiens, MCF7, 72 h
  IC50: 67.1 ± 15.7 µM
MCF-7
  selectivity index (SI) MCF-7: 1.32
MDA-MB-231
  IC50: 68.3 ± 4.6 µM
  selectivity index (SI) MDA-MB231: 1.29
FGFR-1
  IC50: 159 ± 5.3 µM

## O=S(=O)(Nc1ncccn1)c1ccc(Nc2ncnc3sc4c(c23)CCCC4)cc1 [Compound 4aii, N-(pyrimidin-2-yl)-4-((5,6,7,8-tetrahydrobenzo[4,5]thieno[2,3-d]pyrimidin-4-yl)amino)benzenesulfonamide]
[1]
  IC50: > 1000 µM
MCF-7; Homo sapiens, MCF7, 72 h
  IC50: 22.3 ± 3.1 µM
MDA-MB-231
  IC50: 20.2 ± 1.5 µM
FGFR-1
  IC50: 119 ± 5.6 µM

## COc1cccc2c1C(=O)c1c(O)c3c(c(O)c1C2=O)C[C@@](O)(C(=O)CO)C[C@@H]3O[C@H]1C[C@H](N)[C@H](O)[C@H](C)O1 [Doxorubicin, reference compound]
MCF-7; Homo sapiens, MCF7, 72 h
  IC50: 1.6 ± 2.2 µM
MDA-MB-231
  IC50: 2.2 ± 0.3 µM

## N=C(N)NS(=O)(=O)c1ccc(Nc2ncnc3sc4c(c23)CCCC4)cc1 [Compound 4ai, N-carbamimidoyl-4-((5,6,7,8-tetrahydrobenzo[4,5]thieno[2,3-d]pyrimidin-4-yl)amino) benzenesulfonamide]
[1]
  IC50: 458 ± 12.3 µM
MCF-7; Homo sapiens, MCF7, 72 h
  IC50: 35.8 ± 1.2 µM
MCF-7
  selectivity index (SI) MCF-7: 12.79
MDA-MB-231
  IC50: 40.2 ± 2.7 µM
  selectivity index (SI) MDA-MB231: 11.40
FGFR-1
  IC50: 132 ± 4.3 µM
